The text below walks through data of PMC10363032 (Cancer Chemotherapy and Pharmacology, 2023).

The nature of the series: plasma pharmacokinetics of probe cocktail substrates and metabolites with and without adavosertib in patients. As to conditions: for increase in Cmax on adavosertib co-administration / increase in exposure (AUC0–12) on adavosertib co-administration / increase in exposure (AUC0–t) on adavosertib co-administration: adavosertib 225 mg bid vs cocktail alone; for Point estimates of the geometric LS mean ratios S + AD/S, % (90% CI): AUC / Point estimates of the geometric LS mean ratios S + AD/S, % (90% CI): AUC0–t / Point estimates of the geometric LS mean ratios S + AD/S, % (90% CI): Cmax: substrate + adavosertib 225 mg bid vs substrate alone; for Vd/F: Mean Vz/F, L (SD). The procedure: This sampling period was selected based on the half-lives of the probe substrates.
Plasma concentrations for caffeine, paraxanthine, omeprazole, 5-HO, midazolam, and 1ʹ-HM were all determined by high-performance liquid chromatography–tandem mass spectrometry (HPLC–MS/MS) at Labcorp Bioanalytical Laboratories (Madison, WI, USA).
Plasma concentrations of caffeine and paraxanthine collected with K2EDTA as anticoagulant were determined by HPLC–MS/MS detection simultaneously. The standard curves of caffeine and paraxanthine both ranged from 25.0 to 20,000 ng/mL. […] The lower limit of quantification (LLOQ) was 25.0 ng/mL for caffeine and paraxanthine.
Plasma concentrations of omeprazole and 5-HO were collected with lithium heparin as anticoagulant and were determined by HPLC–MS/MS detection simultaneously. […] The LLOQ was 20.0 nM for omeprazole and 5-HO.
Plasma concentrations of midazolam and 1ʹ-HM were collected with K2EDTA as anticoagulant and were determined by HPLC–MS/MS detection simultaneously. The standard curves of midazolam and 1ʹ-HM both ranged from 0.100 to 100 ng/mL. […] The LLOQ was 0.1 ng/mL for midazolam and 1ʹ-HM.
PK parameters were derived using non-compartmental methods with Phoenix® WinNonlin® version 6.4 (Certara, LP, Princeton, NJ, USA). All descriptive and inferential statistical computations were performed using SAS® version 9.1 (SAS Institute, Cary, NC, USA).

Setting [1] is: − AD (cocktail alone, period 1).

Regarding `OCc1ncc2n1-c1ccc(Cl)cc1C(c1ccccc1F)=NC2` [1ʹ-HM, 1ʹ-hydroxymidazolam], the “increase in Cmax on adavosertib co-administration” value worked out at 33%; the “increase in exposure (AUC0–12) on adavosertib co-administration” value was 54%; the “increase in exposure (AUC0–t) on adavosertib co-administration” value was 58%; the “Point estimates of the geometric LS mean ratios S + AD/S, % (90% CI): AUC” value was 153.5 (131.0–179.8) %. The “Point estimates of the geometric LS mean ratios S + AD/S, % (90% CI): AUC0–t” value is given as 158.2 (139.1–180.0) % and the “Point estimates of the geometric LS mean ratios S + AD/S, % (90% CI): Cmax” value was 133.4 (106.5–167.1) %. Also, where the note is “− AD”, the “Mean MR (metabolic ratio in relation to parent compound), AUC” value stood at 0.41; the “Mean MR (metabolic ratio in relation to parent compound), AUC0–t” value came out at 0.43; the “Mean MR (metabolic ratio in relation to parent compound), Cmax” value was found to be 0.47. For the same compound, under setting [1], the “Mean t½ h (SD)” value is listed as 7.2 (6.1) h and the “Median tmax, h (range)” value is 0.5 (0.3–2.1) h.
As for `COc1ccc2nc([S+]([O-])Cc3ncc(CO)c(OC)c3C)[nH]c2c1` (stereo not shown) [5-HO, 5-hydroxyomeprazole], under “human, in vivo”, the “Mean MR (metabolic ratio in relation to parent compound), AUC” value amounted to 0.50; the “Mean MR (metabolic ratio in relation to parent compound), AUC0–t” value turned out to be 0.73; the “Mean MR (metabolic ratio in relation to parent compound), Cmax” value came to 0.53; the “Mean t½ h (SD)” value is reported as 2.7 (1.7) h. Also, the “Median tmax, h (range)” value (human, in vivo) was 3.0 (0.7–6.0) h.
Usually Vd/F stands for the volume of distribution divided by bioavailability. Turning to `Cn1c(=O)c2c(ncn2C)n(C)c1=O` [Caffeine, caffeine, reference compound], where the note is “human, in vivo”, the “Mean CL/F, L/h (SD)” value is listed as 5.7 (2.5) L/h; the “Mean t½ h (SD)” value is recorded as 6.4 (3.8) h; the “Median tmax, h (range)” value was 0.5 (0.3–3.0) h; the Vd/F came to 39.3 L.
As usually defined, the half-life is the time in which the quantity being followed falls by half. Turning to `Cc1ncc2n1-c1ccc(Cl)cc1C(c1ccccc1F)=NC2` [Midazolam, midazolam, reference compound], the “increase in Cmax on adavosertib co-administration” value is given as 39%; the “increase in exposure (AUC0–12) on adavosertib co-administration” value is 55%; the “increase in exposure (AUC0–t) on adavosertib co-administration” value came to 55%; the “Point estimates of the geometric LS mean ratios S + AD/S, % (90% CI): AUC” value was 155.3 (138.6–173.9) %. Further, the “Point estimates of the geometric LS mean ratios S + AD/S, % (90% CI): AUC0–t” value is recorded as 155.2 (140.5–171.5) % and the “Point estimates of the geometric LS mean ratios S + AD/S, % (90% CI): Cmax” value is reported as 138.5 (118.9–161.3) %. Further, the half-life (human, in vivo) is 5.5 h. Besides, where the note is “human, in vivo, + AD (adavosertib 225 mg bid, period 2)”, the Vd/F was found to be 364 L. Moreover, the Vd/F (human, in vivo, − AD (cocktail alone, period 1)) was 410 L. Also, under setting [1], the “Mean CL/F, L/h (SD)” value was 59.0 (34.3) L/h and the “Median tmax, h (range)” value was 0.5 (0.2–1.0) h.
`COc1ccc2[nH]c([S+]([O-])Cc3ncc(C)c(OC)c3C)nc2c1` (stereo not shown) [Omeprazole, omeprazole, reference compound]: for the setting “human, in vivo”, the “Mean CL/F, L/h (SD)” value is on record as 13.3 (10.5) L/h; the “Median tmax, h (range)” value is given as 3.0 (0.7–6.0) h; the Vd/F amounted to 28.3 L. Also, the half-life (human, in vivo, Mean t½ h (SD)) was 2 h.
As for `Cn1c(=O)[nH]c2ncn(C)c2c1=O` [Paraxanthine, paraxanthine], where the note is “human, in vivo”, the “Mean MR (metabolic ratio in relation to parent compound), AUC” value is 0.65; the “Mean MR (metabolic ratio in relation to parent compound), AUC0–t” value amounted to 0.54; the “Mean MR (metabolic ratio in relation to parent compound), Cmax” value came to 0.23; the “Median tmax, h (range)” value is 8.0 (4.0–11.8) h. Moreover, the half-life (human, in vivo, Mean t½ h (SD)) is 7 h.
